# Results as given in patent publication US12540143B2, “Methods and compositions for targeted protein degradation” (Ranok Therapeutics (Hangzhou) Co. Ltd., priority 2019, dated 2026).
# Counter-ions that a name gives are not always drawn.
# Test system: MV4-11 cells
# Assay: MV4-11 Cytotoxicity Assay
# Type: cell-based, human
# Conditions: Homo sapiens, MV4-11, 72 h, read-out: MV4-11 cytotoxicity
row,Structure (SMILES),IC50
1,"CCc1cc(-c2nnc(C(=O)NCC(F)(F)F)n2-c2ccc(CN3CCN(CC4CCN(C(=O)C[C@@H]5N=C(c6ccc(Cl)cc6)c6c(sc(C)c6C)-n6c(C)nnc65)CC4)CC3)cc2)c(O)cc1O [Compound 14, 4-(4-((4-((1-(2-((6S)-4-(4-chlorophenyl)-2,3,9-trimethyl-6H-thieno[3,2-f][1,2,4]triazolo[4,3-a][1,4]diazepin-6-yl)acetyl)piperidin-4-yl)methyl)piperazin-1-yl)methyl)phenyl)-5-(5-ethyl-2,4-dihydroxyphenyl)-N-(2,2,2-trifluoroethyl)-4H-1,2,4-triazole-3-carboxamide, trifluoroacetic acid]",< 100 nM

# Same assay, conditions: Homo sapiens, MV4-11; 72 hr, CCK-8; read-out: MV4-11 cytotoxicity
row,Structure (SMILES),IC50
1,"Cc1sc2c(c1C)C(c1ccc(Cl)cc1)=N[C@@H](CC(=O)N1CCC(CN3CCC(Cc4ccc(-n5c(C(=O)NCC(F)(F)F)nnc5-c5cc(C(C)C)c(O)cc5O)cc4)CC3)CC1)c1nnc(C)n1-2 [Compound 85, (S)-4-(4-((1-((1-(2-(4-(4-chlorophenyl)-2,3,9-trimethyl-6H-thieno[3,2-f][1,2,4]triazolo[4,3-a][1,4]diazepin-6-yl)acetyl)piperidin-4-yl)methyl)piperidin-4-yl)methyl)phenyl)-5-(2,4-dihydroxy-5-isopropylphenyl)-N-(2,2,2-trifluoroethyl)-4H-1,2,4-triazole-3-carboxamide, formic acid]",< 100 nM
2,"Cc1sc2c(c1C)C(c1ccc(Cl)cc1)=N[C@@H](CC(=O)N[C@H](C)c1cccc(CN3CCC(Cc4ccc(-n5c(C(=O)NCC(F)(F)F)nnc5-c5cc(C(C)C)c(O)cc5O)cc4)CC3)c1)c1nnc(C)n1-2 [Compound 97, 4-(4-((1-(3-((R)-1-(2-((S)-4-(4-chlorophenyl)-2,3,9-trimethyl-6H-thieno[3,2-f][1,2,4]triazolo[4,3-a][1,4]diazepin-6-yl)acetamido)ethyl)benzyl)piperidin-4-yl)methyl)phenyl)-5-(2,4-dihydroxy-5-isopropylphenyl)-N-(2,2,2-trifluoroethyl)-4H-1,2,4-triazole-3-carboxamide, trifluoroacetic acid]",< 100 nM
3,"CCc1cc(-c2nnc(C(=O)NCC(F)(F)F)n2-c2ccc(CC3CCN(CC4CCN(C(=O)C[C@@H]5N=C(c6ccc(Cl)cc6)c6c(sc(C)c6C)-n6c(C)nnc65)CC4)CC3)cc2)c(O)cc1O [Compound 86, (S)-4-(4-((1-((1-(2-(4-(4-chlorophenyl)-2,3,9-trimethyl-6H-thieno[3,2-f][1,2,4]triazolo[4,3-a][1,4]diazepin-6-yl)acetyl)piperidin-4-yl)methyl)piperidin-4-yl)methyl)phenyl)-5-(5-ethyl-2,4-dihydroxyphenyl)-N-(2,2,2-trifluoroethyl)-4H-1,2,4-triazole-3-carboxamide, trifluoroacetic acid]",< 100 nM
4,"CCc1cc(-c2nnc(C(=O)NCCN(CC)CC)n2-c2ccc(CN3CCN(CC4CCN(C(=O)C[C@@H]5N=C(c6ccc(Cl)cc6)c6c(sc(C)c6C)-n6c(C)nnc65)CC4)CC3)cc2)c(O)cc1O [Compound 104, (S)-4-(4-((4-((1-(2-(4-(4-chlorophenyl)-2,3,9-trimethyl-6H-thieno[3,2-f][1,2,4]triazolo[4,3-a][1,4]diazepin-6-yl)acetyl)piperidin-4-yl)methyl)piperazin-1-yl)methyl)phenyl)-N-(2-(diethylamino)ethyl)-5-(5-ethyl-2,4-dihydroxyphenyl)-4H-1,2,4-triazole-3-carboxamide, trifluoroacetic acid]",< 100 nM
5,"Cc1sc2c(c1C)C(c1ccc(Cl)cc1)=N[C@@H](CC(=O)N1CCC(CN3CCN(Cc4ccc(-n5c(C(=O)NCCN6CCCCC6)nnc5-c5ccc(O)cc5O)cc4)CC3)CC1)c1nnc(C)n1-2 [Compound 110, (S)-4-(4-((4-((1-(2-(4-(4-chlorophenyl)-2,3,9-trimethyl-6H-thieno[3,2-f][1,2,4]triazolo[4,3-a][1,4]diazepin-6-yl)acetyl)piperidin-4-yl)methyl)piperazin-1-yl)methyl)phenyl)-5-(2,4-dihydroxyphenyl)-N-(2-(piperidin-1-yl)ethyl)-4H-1,2,4-triazole-3-carboxamide, trifluoroacetic acid]",100 to 1000 nM
6,"Cc1sc2c(c1C)C(c1ccc(Cl)cc1)=N[C@@H](CC(=O)N(C)[C@H](C)c1ccc(CN3CCC(Cc4ccc(-n5c(O)nnc5-c5cc(C(C)C)c(O)cc5O)cc4)CC3)cc1)c1nnc(C)n1-2 [Compound 93, 2-((S)-4-(4-chlorophenyl)-2,3,9-trimethyl-6H-thieno[3,2-f][1,2,4]triazolo[4,3-a][1,4]diazepin-6-yl)-N—((R)-1-(4-((4-(4-(3-(2,4-dihydroxy-5-isopropylphenyl)-5-hydroxy-4H-1,2,4-triazol-4-yl)benzyl)piperidin-1-yl)methyl)phenyl)ethyl)-N-methylacetamide, trifluoroacetic acid]",< 100 nM
7,"CCc1cc(-c2nnc(O)n2-c2ccc(CN3CCN(CC4CCN(C(=O)C[C@@H]5N=C(c6ccc(Cl)cc6)c6c(sc(C)c6C)-n6c(C)nnc65)CC4)CC3)cc2)c(O)cc1O [Compound 10, (S)-2-(4-(4-chlorophenyl)-2,3,9-trimethyl-6H-thieno[3,2-f][1,2,4]triazolo[4,3-a][1,4]diazepin-6-yl)-1-(4-((4-(4-(3-(5-ethyl-2,4-dihydroxyphenyl)-5-hydroxy-4H-1,2,4-triazol-4-yl)benzyl)piperazin-1-yl)methyl)piperidin-1-yl)ethan-1-one hydrochloride]",< 100 nM
8,"Cc1sc2c(c1C)C(c1ccc(Cl)cc1)=N[C@@H](CC(=O)N(C)CCOc1ccc(CN(C)Cc3ccc(-n4c(O)nnc4-c4cc(C(C)C)c(O)cc4O)cc3)cc1)c1nnc(C)n1-2 [Compound 99, (S)-2-(4-(4-chlorophenyl)-2,3,9-trimethyl-6H-thieno[3,2-f][1,2,4]triazolo[4,3-a][1,4]diazepin-6-yl)-N-(2-(4-(((4-(3-(2,4-dihydroxy-5-isopropylphenyl)-5-hydroxy-4H-1,2,4-triazol-4-yl)benzyl)(methyl)amino)methyl)phenoxy)ethyl)-N-methylacetamide, formic acid]",< 100 nM
9,"Cc1sc2c(c1C)C(c1ccc(Cl)cc1)=N[C@@H](CC(=O)NCCc1ccc(CN3CCC(Cc4ccc(-n5c(C(=O)NCC(F)(F)F)nnc5-c5cc(C(C)C)c(O)cc5O)cc4)CC3)cc1)c1nnc(C)n1-2 [Compound 95, (S)-4-(4-((1-(4-(2-(2-(4-(4-chlorophenyl)-2,3,9-trimethyl-6H-thieno[3,2-f][1,2,4]triazolo[4,3-a][1,4]diazepin-6-yl)acetamido)ethyl)benzyl)piperidin-4-yl)methyl)phenyl)-5-(2,4-dihydroxy-5-isopropylphenyl)-N-(2,2,2-trifluoroethyl)-4H-1,2,4-triazole-3-carboxamide, trifluoroacetic acid]",< 100 nM
10,"CCc1cc(-c2nnc(O)n2-c2ccc(CN3CCC(C(=O)N4CCC(CNCC[C@@H]5N=C(c6ccc(Cl)cc6)c6c(sc(C)c6C)-n6c(C)nnc65)C4)CC3)cc2)c(O)cc1O (stereo partly drawn) [Compound 67, (3-(((2-((6S)-4-(4-chlorophenyl)-2,3,9-trimethyl-6H-thieno[3,2-f][1,2,4]triazolo[4,3-a][1,4]diazepin-6-yl)ethyl)amino)methyl)pyrrolidin-1-yl)(1-(4-(3-(5-ethyl-2,4-dihydroxyphenyl)-5-hydroxy-4H-1,2,4-triazol-4-yl)benzyl)piperidin-4-yl) methanone, trifluoroacetic acid]",100 to 1000 nM
11,"Cc1sc2c(c1C)C(c1ccc(Cl)cc1)=N[C@@H](CC(=O)N1CCC(CN3CCN(Cc4ccc(-n5c(C(N)=O)nnc5-c5ccc(O)cc5O)cc4)CC3)CC1)c1nnc(C)n1-2 [Compound 112, (S)-4-(4-((4-((1-(2-(4-(4-chlorophenyl)-2,3,9-trimethyl-6H-thieno[3,2-f][1,2,4]triazolo[4,3-a][1,4]diazepin-6-yl)acetyl)piperidin-4-yl)methyl)piperazin-1-yl)methyl)phenyl)-5-(2,4-dihydroxyphenyl)-4H-1,2,4-triazole-3-carboxamide, trifluoroacetic acid]",< 100 nM
12,"Cc1sc2c(c1C)C(c1ccc(Cl)cc1)=N[C@@H](CC(=O)N1CCC(Cc3ccc(-n4c(O)nnc4-c4cc(C(C)C)c(O)cc4O)cc3)CC1)c1nnc(C)n1-2 [Compound 3, 2-((6S)-4-(4-chlorophenyl)-2,3,9-trimethyl-6H-thieno[3,2-f][1,2,4]triazolo[4,3-a][1,4]diazepin-6-yl)-1-(4-(4-(3-(2,4-dihydroxy-5-isopropylphenyl)-5-hydroxy-4H-1,2,4-triazol-4-yl)benzyl)piperidin-1-yl)ethanone, trifluoroacetic acid]",< 100 nM
13,"Cc1sc2c(c1C)C(c1ccc(Cl)cc1)=N[C@@H](CC(=O)Nc1ccc(NC(=O)C3CCN(Cc4ccc(-n5c(O)nnc5-c5cc(C(C)C)c(O)cc5O)cc4)CC3)cc1)c1nnc(C)n1-2 [Compound 72, N-(4-(2-((6S)-4-(4-chlorophenyl)-2,3,9-trimethyl-6H-thieno[3,2-f][1,2,4]triazolo[4,3-a][1,4]diazepin-6-yl)acetamido)phenyl)-1-(4-(3-(2,4-dihydroxy-5-isopropylphenyl)-5-hydroxy-4H-1,2,4-triazol-4-yl)benzyl)piperidine-4-carboxamide, trifluoroacetic acid]",< 100 nM
14,"CCNC(=O)c1nnc(-c2cc(CC)c(O)cc2O)n1-c1ccc(CC2CCN(CC3CCN(C(=O)C[C@@H]4N=C(c5ccc(Cl)cc5)c5c(sc(C)c5C)-n5c(C)nnc54)CC3)CC2)cc1 [Compound 87, (S)-4-(4-((1-((1-(2-(4-(4-chlorophenyl)-2,3,9-trimethyl-6H-thieno[3,2-f][1,2,4]triazolo[4,3-a][1,4]diazepin-6-yl)acetyl)piperidin-4-yl)methyl)piperidin-4-yl)methyl)phenyl)-N-ethyl-5-(5-ethyl-2,4-dihydroxyphenyl)-1H-1,2,414-triazole-3-carboxamide, trifluoroacetic acid]",< 100 nM
15,"Cc1sc2c(c1C)C(c1ccc(Cl)cc1)=N[C@@H](CC(=O)NCC1CN(C(=O)C3CCN(Cc4ccc(-n5c(O)nnc5-c5cc(C(C)C)c(O)cc5O)cc4)CC3)C1)c1nnc(C)n1-2 [Compound 59, 2-((6S)-4-(4-chlorophenyl)-2,3,9-trimethyl-6H-thieno[3,2-f][1,2,4]triazolo[4,3-a][1,4]diazepin-6-yl)-N-((1-(1-(4-(3-(2,4-dihydroxy-5-isopropylphenyl)-5-hydroxy-4H-1,2,4-triazol-4-yl)benzyl)piperidine-4-carbonyl)azetidin-3-yl)methyl)acetamide, trifluoroacetic acid]",< 100 nM
